Data published in patent publication US9386767B2, “Derivatives of dillapiol and related monolignans and use thereof” (UNIVERSITY OF OTTAWA, priority 2011, dated 2016).
Several values for one entry are separate records, joined by “and”; a condition that tells them apart may be missing. Equal entries are not always repeated. Where two headings read alike, the source gives them in different places.

Experiments:
[1] = biological target: human cytochrome CYP3A4 (Homo sapiens, UniProt P08684); assay: CYP3A4 inhibition assay of dillapiol derivatives (earlier benzyloxyresorufin assay); format: biochemical; details: Table 1; for Rel. Activity Dillapiol = 1.0: CYP3A4 inhibition relative to dillapiol; for IC50: CYP3A4 inhibition, read-out: IC50
human cytochrome CYP3A4, sequence (P08684 whole entry): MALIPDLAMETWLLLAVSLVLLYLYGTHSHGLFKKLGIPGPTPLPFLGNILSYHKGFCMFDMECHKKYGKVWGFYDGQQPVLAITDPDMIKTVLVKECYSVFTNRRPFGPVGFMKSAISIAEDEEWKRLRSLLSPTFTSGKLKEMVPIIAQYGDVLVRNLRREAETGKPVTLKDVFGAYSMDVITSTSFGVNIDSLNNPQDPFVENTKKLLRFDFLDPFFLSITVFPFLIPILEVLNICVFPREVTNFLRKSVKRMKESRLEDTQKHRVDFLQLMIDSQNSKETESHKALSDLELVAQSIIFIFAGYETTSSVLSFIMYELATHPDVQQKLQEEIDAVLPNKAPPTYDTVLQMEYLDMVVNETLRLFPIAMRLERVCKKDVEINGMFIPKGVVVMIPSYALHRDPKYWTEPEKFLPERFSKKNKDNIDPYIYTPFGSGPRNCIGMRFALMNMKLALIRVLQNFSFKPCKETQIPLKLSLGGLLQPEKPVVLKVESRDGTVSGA
Protocol: A suite of dillapiol derivatives were synthesized and assayed for their capacity to inhibit human cytochrome CYP3A4. For each molecule, experimental IC50 values for CYP3A4 inhibition were determined. These IC50 values together with the log of the octanol-water partition coefficient (logP) and molecular refractivity (MR) are shown in Table 1, and were used as parameters to model a quantitative structure-activity relationship (QSAR). The resulting equations were used to guide the design of further derivatives with enhanced CYP3A4 inhibition.
(§1) In the second set of experiments, new CYP3A4 enzyme inhibition assays were conducted with a designed set of analogs and newer method described by Foster et al. (J. Agric. Food Chem, 2011, 59(9):5159-5163). This assay using the substrate dibenzylfluorescein (DBF) is considered more representative of CYP3A4 activity as compared to the benzyloxyresorufin assay previously used (Budzinski et al., 2000, Phytomedicine, 7(4):273-282).

[2] = biological target: T1, CYP3A4 (BDGentest) (Homo sapiens, UniProt P08684); assay: New CYP3A4 bioassay with dibenzylfluorescein (DBF) substrate (Foster et al. 2011); format: biochemical; details: for IC50: human microsomes; for % Activity relative to dillapiol = 1: new CYP3A4 bioassay, inhibition relative to dillapiol
T1 construct: purchased BDGentest
T1 sequence (P08684 whole entry): as above
Protocol: as §1
Aliquots (10 μL) of stock solutions of the undiluted products were screened for their ability to inhibit CYP3A4 (BDGentest) metabolism of the non-fluorescent dibenzylfluorescein (DBF) substrates to the fluorescent metabolite using an in vitro fluorometric microtiter plate assay (CytoFluor Series 4000 multi-well plate reader). Briefly, assays were performed with 10 μL of product in clear-bottom, opaque-welled microtiter plates (96 well, Corning Costar). Control and control blank wells contained 5% ethanol, and test and test blank wells contained the product. All wells tested contained distilled water, β-nicotinamide adenine dinucleotide phosphate, reduced form (NADPH, Sigma Chemicals), and the enzyme substrate DBF (final concentration of 1 μM/well), for a total reaction volume of 200 μL. Control and test wells also contained live isozyme, within human microsomes, in phosphate buffer solution (PBS; 0.5 M, pH 7.4), and control blank and test blank wells contained denatured isoenzyme in PBS. Fluorescence was measured at 485 nm excitation and 530 nm emission, with a gain of 50.

[3] = DBF substrate 1 μM, read-out: IC50 (converted)

Row | SMILES | IC50 [2, 3] | % Activity relative to dillapiol = 1 [2] | also measured
1 | C=CCc1cc2c(c(Br)c1O)OCO2 [Compound 17] | – | – | Rel. Activity Dillapiol = 1.0 [1]: 0.68; IC50 [1]: 600 µM
2 | C=CCc1cc2c(c([S+]([O-])c3ccccc3)c1OC)OCO2 (stereo not drawn) [Compound 26] | – | – | Rel. Activity Dillapiol = 1.0 [1]: 2.7; IC50 [1]: 150 µM
3 | COc1c(CCCOCc2ccccc2)cc2c(c1OC)OCO2 | 6.66 µM | 1.38 | –
4 | COc1ccc(OC)c(COc2cc3c(cc2CCCOC(=O)c2ccccc2)OCO3)c1 [Compound 50] | – | – | CYP3A4 inhibition (in words) [2]: strong CYP3A4 inhibitors
5 | C=CCc1cc2c(c(C(O)CCCCCCCC)c1OC)OCO2 (stereo not drawn) [Compound 2] | – | – | CYP3A4 inhibition compared with dillapiol (in words) [1]: at least four times lower than dillapiol; Rel. Activity Dillapiol = 1.0 [1]: 15; IC50 [1]: 26 µM
6 | C=CCc1cc2c(c(S(C)(=O)=O)c1OC)OCO2 [Compound 15] | – | – | Rel. Activity Dillapiol = 1.0 [1]: 0.37; IC50 [1]: 1100 µM
7 | OCCCc1cc2c(cc1OCc1ccccc1)OCO2 | 3 µM | 3 | –
8 | O=C(OCCCc1cc2c(cc1OCc1ccccc1)OCO2)c1ccccc1 | 3.9 µM and 3.84 µM | 2.3 | –
9 | C=CCc1cc2c(c(COC)c1OC)OCO2 [Compound 5] | – | – | Rel. Activity Dillapiol = 1.0 [1]: 1.3; IC50 [1]: 320 µM
10 | C=CCc1cc2c(c(/C=C/C(=O)OC)c1OC)OCO2 [Compound 6] | – | – | Rel. Activity Dillapiol = 1.0 [1]: 1.7; IC50 [1]: 240 µM
11 | C=CCc1cc2c(cc1OCc1ccccc1)OCO2 | 1.44 µM and 1.43 µM | 6.37 | –
12 | COc1c(CCCOC(=O)c2ccc3c(c2)OCO3)cc2c(c1OC)OCO2 | 2.63 µM | 3.49 | –
13 | CCCc1cc2c(cc1OC)OCO2 | – | – | IC50 ([2]; IC50, DBF substrate 1 μM): > 26 µM
14 | CCCCCC(=O)OCCCc1cc2c(c(OC)c1OC)OCO2 | 3.25 µM | 2.82 | –
15 | C=CCc1cc2c(c(Sc3ccccc3)c1OC)OCO2 [Compound 16] | – | – | Rel. Activity Dillapiol = 1.0 [1]: 0.84; IC50 [1]: 480 µM
16 | O=C(/C=C/c1ccccc1)OCCCc1cc2c(cc1OCc1ccccc1)OCO2 | 8 µM and 7.92 µM | 1.125 | –
17 | C=CCc1cc2c(c(C(O)CCCCCCCC)c1OC)OCO2 (single isomer, unassigned) [Compound 7] | – | – | Rel. Activity Dillapiol = 1.0 [1]: 2.2; IC50 [1]: 190 µM
18 | C=CCc1cc2c(cc1OCc1cc(OC)ccc1OC)OCO2 | 2.15 µM | 4.27 | –
19 | C=CCc1cc2c(c(OCCCCCCCC)c1OC)OCO2 [Compound 3] | – | – | Rel. Activity Dillapiol = 1.0 [1]: 1.3; IC50 [1]: 320 µM

Row | SMILES | IC50 [2, 3] | % Activity relative to dillapiol = 1 [2] | also measured
20 | COc1c(CCCC(c2ccccc2)c2ccccc2)cc2c(c1OC)OCO2 | > 20 µM | – | –
21 | COc1cc2c(cc1CCCOC(=O)C(c1ccccc1)c1ccccc1)OCO2 [Compound 61] | 0.47 µM | 19.5 | CYP3A4 inhibition (in words) [2]: strong CYP3A4 inhibitors
22 | COc1c(C/C=C/Cc2cc3c(c(OC)c2OC)OCO3)cc2c(c1OC)OCO2 [Compound 56] | 1.8 µM | 5.1 | % Activity relative to dillapiol = 1 ([2]; listed as drawing 59): 5.1
23 | COc1c(CCCOC(=O)CCCc2ccccc2)cc2c(c1OC)OCO2 | 4.14 µM | 2.22 | –
24 | COc1c(CCCOC(=O)C(C)(C)C)cc2c(c1OC)OCO2 | 2.78 µM and 2.77 µM | 3.3 | –
25 | O=C(OCCCc1cc2c(cc1OCc1ccccc1)OCO2)C(c1ccccc1)c1ccccc1 [Compound 70] | – | 4 | CYP3A4 inhibition (in words) [2]: strong CYP3A4 inhibitors
26 | OC(CCCC/C=C/c1ccc2c(c1)OCO2)(c1ccccc1)c1ccccc1 [Compound 59] | 0.54 µM and 0.517 µM | 17 | –
27 | COc1c(CCCC(O)(c2ccccc2)c2ccccc2)cc2c(c1OC)OCO2 | 1.06 µM | 8.7 | –
28 | COc1c(CCCOC(=O)c2ccc(Cl)cc2Cl)cc2c(c1OC)OCO2 | 1.4 µM and 1.43 µM | 6.56 | –
29 | O=C(OCCCc1cc2c(cc1OCc1ccccc1)OCO2)C(c1ccccc1)c1ccccc1 [drawing 80] | 0.62 µM and 0.624 µM | 14 | –
30 | COc1c(CCCOC(=O)Cc2ccccc2)cc2c(c1OC)OCO2 | – | 4.83 | IC50 ([2]; IC50, DBF substrate 1 μM): 1.9 µM
31 | COc1c(CCCOC(=O)/C=C/c2ccccc2)cc2c(c1OC)OCO2 | 2.38 µM | 3.86 | –
32 | OCCCCc1ccc2c(c1)OCO2 | > 26 µM | – | –
33 | O=C(O)CCCC/C=C/c1ccc2c(c1)OCO2 | > 20.1 µM | – | –
34 | COc1ccc(OC)c(COc2cc3c(cc2CCCOC(=O)c2ccccc2)OCO3)c1 [drawing 60] | 0.36 µM and 0.355 µM | 25.5 | –
35 | COc1c(CCCCO)cc2c(c1OC)OCO2 | 11.6 µM | 0.8 | –
36 | COc1cc2c(cc1CCCOC(=O)c1ccccc1)OCO2 [Compound 63] | – | – | CYP3A4 inhibition (in words) [2]: strong CYP3A4 inhibitors
37 | COc1c(CCC(C)O)cc2c(c1OC)OCO2 (stereo not drawn) | > 20 µM | – | –
38 | COc1c(CCCOC(=O)c2ccc(Cl)cc2)cc2c(c1OC)OCO2 | 1.56 µM | 5.89 | –

Row | SMILES | IC50 [2, 3] | % Activity relative to dillapiol = 1 [2] | also measured
39 | COc1c(CCCOC(=O)C(c2ccccc2)c2ccccc2)cc2c(c1OC)OCO2 [Compound 48] | – | – | CYP3A4 inhibition (in words) [2]: potent inhibitor
40 | C=CCc1cc2c(cc1O)OCO2 [drawing 54] | > 28.1 µM | – | –
41 | COc1c(C/C=C/Cc2cc3c(c(OC)c2OC)OCO3)cc2c(c1OC)OCO2 [drawing 66] | 1.44 µM | 6.3 | –
42 | COc1ccc(OC)c(COc2cc3c(cc2CCCOC(=O)C(c2ccccc2)c2ccccc2)OCO3)c1 [drawing 79] | 0.23 µM | 41 | –
43 | COc1cc2c(cc1CCCOC(=O)/C=C/c1ccccc1)OCO2 | 4.73 µM | 1.94 | –
44 | O=C(CCCC/C=C/c1ccc2c(c1)OCO2)OCCCO | 4.1 µM and 4.08 µM | 2.2 | –
45 | COc1c(CCCOCc2ccc(F)cc2)cc2c(c1OC)OCO2 | 10.3 µM | 0.89 | –
46 | COc1c(CCCOC(=O)c2ccc([N+](=O)[O-])cc2)cc2c(c1OC)OCO2 | > 13 µM | – | –
47 | COc1cc2c(cc1CCCOC(=O)c1ccccc1)OCO2 [drawing 73] | 2.07 µM | 4.4 | –
48 | COc1cc2c(cc1CCCO)OCO2 | 4.05 µM and 4.04 µM | 2.25 | –
49 | COc1c(CCCOC(=O)c2ccccc2Cl)cc2c(c1OC)OCO2 | 5.27 µM | 1.75 | –
50 | C=CCc1cc2c(cc1OC)OCO2 | – | – | IC50 ([2]; IC50, DBF substrate 1 μM): > 26 µM
51 | COc1ccc(OC)c(COc2cc3c(cc2CCCOC(=O)C(c2ccccc2)c2ccccc2)OCO3)c1 [Compound 69] | – | – | CYP3A4 inhibition (in words) [2]: strong CYP3A4 inhibitors
52 | COc1c(CCCOC(C)=O)cc2c(c1OC)OCO2 | 9.22 µM and 9.21 µM | 1 | –
53 | COc1c(CC/C=C/C(=O)NC(C)C)cc2c(c1OC)OCO2 | 2.1 µM | 4.37 | –
54 | C/C=C(\C)C(=O)OCCCc1cc2c(c(OC)c1OC)OCO2 | 1.55 µM | 5.9 | –
55 | COc1c(CCCOC(=O)C(c2ccccc2)c2ccccc2)cc2c(c1OC)OCO2 [drawing 58] | 0.434 µM | 21.15 | –
56 | COc1c(CCCOC(=O)C2CCCCC2)cc2c(c1OC)OCO2 | 1.9 µM | 4.83 | –
57 | O=C(OCCCc1cc2c(cc1OCc1ccccc1)OCO2)c1ccc2c(c1)OCO2 | 1.4 µM and 1.38 µM | 6.6 | –
